Laboratory results reported in patent publication US6440952B2, “Phosphono-carboxylate compounds for treating amyloidosis” (Queen's University at Kingston, priority 1999, dated 2002).
Counter-ions that a name gives are not always drawn.

What was measured:
[1] = molecular target: T1, Aβ peptide (Homo sapiens, UniProt P05067); assay: in vitro circular dichroism (CD) assay for formation of β-sheet secondary structure; assay type: biochemical; conditions: Aβ peptide with test compound in 10 mM Tris-HCl pH 7, incubated 0 or 24 hours at 37° C.
T1 construct: Aβ is a 40 amino acid protein associated with Alzheimer's disease; made in house; host or cells: chemical solid-phase peptide synthesis (no expression host)
T1 sequence (P05067 672-711 limits assumed): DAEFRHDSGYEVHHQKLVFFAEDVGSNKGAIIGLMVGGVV
Source text: It is known that amyloidogenic peptides or proteins which have formed amyloid deposits or plaques have a significant amount of β-sheet secondary structure, while the unaggregated peptide or protein generally has less β-sheet structure. It is believed that the ability of a candidate therapeutic compound to prevent the formation of β-sheet secondary structure in vitro may be correlated with the ability of the compound to inhibit amyloidogenesis in vivo. Accordingly, phosphonate compounds were assayed for ability to prevent the formation of β-sheet secondary structure in assay systems including an in vitro circular dichroism (CD) assay.
Aβ is a 40 amino acid protein associated with Alzheimer's disease. Aβ peptide was prepared and purified as described in Fraser, P. E. et al., Biochemistry 31, 10716 (1992). Briefly, the peptide was synthesized by standard solid-phase techniques and purified by HPLC according to well known procedures.
All CD experiments were performed on a commercially available instrument. The cell is was maintained at 25° C. using a circulating water bath. Computer-averaging of traces was performed to improve signal-to-noise ratios. The solvent signal was subtracted. CD experiments were performed for each test compound according to the following procedure:
A stock solution of purified peptide was made by dissolving the peptide in phosphate-buffered saline (PBS) to a concentration of 2 mg/ml. A test solution was made for each potential therapeutic agent (test compound) as shown below:
The control sample had no test compound, and a total of 5 μl distilled water was added. The test solution was incubated for either 0 or 24 hours at 37° C. before CD measurement. The size minimum in the CD spectrum at 218 nm is believed to be diagnostic of the presence of β-pleated sheet. Comparison of the minimum at 218 nm of a candidate compound, compared to the minimum of a control sample, is believed to be indicative of the ability of the candidate compound to inhibit the formation of β-pleated sheet.

[2] = molecular target: T2, amyloid peptide (Homo sapiens, UniProt P05067); assay: amyloid peptide solubility assay (overnight incubation, centrifugation, determination of soluble peptide); assay type: biochemical; conditions: compound and amyloid peptide incubated together overnight, preliminary result, buffer composition may have interfered
T2 construct: Aβ is a 40 amino acid protein associated with Alzheimer's disease
T2 sequence (P05067 672-711 limits assumed): as above

[3] = system: cortical/hippocampal neuronal cultures; assay: neurotoxicity in cortical/hippocampal neuronal cultures; assay type: cell-based; conditions: concentrations ranging from 10^−7M to 10^−4 M

O=C(O)CCP(=O)(O)O [2 carboxyethylphosphonic acid]
reduction of β-sheet formation as measured by the CD assay (minimum at 218 nm versus control) [1]: lower ability to prevent β-pleated sheet formation

O=C(O)CP(=O)(O)O [Phosphonoacetate]
reduction of β-sheet formation as measured by the CD assay (minimum at 218 nm versus control) [1]: active

O=C(O)P(=O)(O)O [phosphonoformate trisodium salt, Trisodium phosphonoformate]
reduction of β-sheet formation as measured by the CD assay (minimum at 218 nm versus control) [1]: significantly and reproducibly reduce the amount of β-sheet formation
effect on amyloid peptide solubility [2]: little effect on amyloid peptide solubility
neurotoxicity [3]: no significant toxicity
